Legend:
[1] = test system: actomyosin ATPase of mouse cardiac myofibrils; assay: Actomyosin MgATPase assay of isolated cardiac myofibrils (Ca2+ sensitivity); type: biochemical
Experimental: Mice were anesthetized with sodium pentobarbital (50 mg/kg body weight, i.p.). Hearts removed from transgenic or control mice were perfused in a retrograde manner, either with normal saline or with saline containing 20 nM isoproterenol. Cardiac myofibrils were prepared according to the method described by Solaro et al. (23, incorporated herein by reference) with modifications. These include the use of NaF (50 mM), EGTA (2.5 mM), and KH2PO4 as phosphatase inhibitors and phenylmethylsulphonyl fluoride (0.2 mM) as a protease inhibitor (24). The ventricular muscle was pulverized in a food blender for 10 seconds in 50 ml buffer containing 0.5% (v/v) Triton X-100®, 60 mM KCl, 30 mM imidazole, pH 7.0, 2 mM MgCl2, and 1 mM DTT, incubated for 5 min and centrifuged at 2,500×g for 2 min. Pellets were washed three times in buffer containing 60 mM KCl, 30 mM imidazole, pH 7.0, 2 mM MgCl2, and 1 mM DTT.
Actomyosin MgATPase assays were performed to titrate the Ca^2+ sensitivity of the transgenic and wild-type mouse cardiac myofibrils under constant ionic strength, using the stability constants compiled by Fabiato (25), and were performed at pH 7.0 with 50 mM imidazole, 50 mM KCl, and 2 mM MgATP at 37° C. Inorganic phosphate release was measured as the amount of heteropolymolybdenum (26) using an automated microtiter plate reader (Bio-Rad Benchmark) for optical density at 660 nm, as described previously (27, incorporated herein by reference).

[2] = test system: isolated working mouse hearts; assay: Langendorff-Neely isolated working heart preparation
Experimental: Cardiac function of wild-type and transgenic mice were measured at 5-6 months of age using the Langendorff-Neely isolated working heart preparation, at a constant preload of 10 mmHg and an afterload of 55 mmHg, as previously described (29-31, incorporated herein by reference). Mice were anesthetized as above and the thoracic cavity was opened by a transverse incision to access the heart. Retrograde perfusion through the aorta was initiated within 60 seconds after removal of the heart. After establishing left atrial perfusion, the heart was switched to working mode. The hearts were perfused with Krebs-Henseleit bicarbonate buffer aerated with 95% O2-5% CO2 at 37° C. (pH=7.4). The buffer contents were as follows (in mM): 118 NaCl, 4.7 KCl, 2.25 CaCl2, MgSO4, 1.2 KH2PO4, 0.32 EGTA, 25 NaHCO3, and 11 D-glucose (29). Functions of the isolated working hearts were measured on intrinsic beats at 37° C. with no artificial pacing applied.
Aortic flow and coronary effluent were collected once every two minutes over a 30-minute period. Heart rate and the maximum rate of pressure development (dP/dt) were measured using an MLT844 pressure transducer (Capto, Horten, Norway) attached to the aortic cannula. […]
Stroke volume (μL/g heart tissue) was calculated as the sum of aortic flow and coronary effluent, normalized to heart rate. Stroke work (mL-mmHg/g heart tissue) was calculated as stroke volume X average aortic pressure (diastolic pressure+one-third of pulse pressure) (mmHg). During the collection of aortic flow, time to peak pressure (TTP) and the relaxation times (RT) at 10, 50 and 80% total relaxation (RT10, RT50 and RT80, respectively) were measured from the pressure traces. Systolic and diastolic pressure time integrals (STI, correlating with myocardial energy expenditure (31-34), and DTI, correlating with diastolic function and coronary perfusion (35-42), respectively) were calculated by integrating the systolic and diastolic portions of the pressure waves. […]

[3] = test system: transgenic mouse hearts; assay: Observation of transgenic mice and hearts for hypertrophy and abnormality; type: in vivo
Excerpt: Transgenic mice over-expressing various levels of cTnI-ND in the heart are apparently normal in life activities.

Row | Compound | maximum actomyosin ATPase rate with isoproterenol treatment, WT myofibrils ([1]; WT cardiac myofibrils, with isoproterenol treatment) [nmole Pi/mg protein/min] | pCa50 ([1]; myofibrils from isoproterenol perfused WT hearts) | −dP/dt produced by isoproterenol treatment in WT hearts ([2]; 10 nM isoproterenol, WT hearts) [mmHg-sec^−1] | effect of isoproterenol on velocity of contraction (+dP/dt) ([2]; 10 nM isoproterenol, WT, INT-cTnI-ND and H-cTnI-ND hearts) | effect of isoproterenol on relaxation velocity ([2]; 30 nM and 50 nM isoproterenol perfusions, all three groups of hearts) | maximum Ca^2+-activated actomyosin ATPase rate ([1]; cTnI-ND cardiac myofibrils, base line) [nmole Pi/mg protein/min] | maximum actomyosin ATPase rate with isoproterenol treatment, cTnI-ND myofibrils ([1]; cTnI-ND cardiac myofibrils, with isoproterenol treatment) [nmole Pi/mg protein/min] | hypertrophy (heart weight/body weight ratio, diameter of cardiac myocytes) ([3]; compared with wild type controls) | anatomical or histological abnormality of hearts ([3]; transgenic mouse hearts)
1 | CC(C)NCC(O)c1ccc(O)c(O)c1 (stereo not drawn) [isoproterenol] | 418±57 | 5.91±0.05 | 2087±58 | increased in all three groups | significant increases in relaxation velocity | – | – | – | –
2 | cTnI-ND: N-terminus truncated mouse cardiac troponin I that lacks amino acids 1-28, over-expressed in transgenic mouse hearts | – | – | – | – | – | 417±48 | 421±43 | No evidence of hypertrophy | no evidence of anatomical or histological abnormality
